Values after ≈ are worked out from the molar mass of the structure shown.
Columns and labels:
[1] = Stability in solution, 0.005 M phosphate buffer pH 7.4, 37° C.; assay type: physicochemical; settings: pH 7.4 and 37° C.
Procedure: Stability in Solution. Stability in solution was determined at 37° C. in 0.005 M phosphate buffer of pH 7.4. […] Residual antibiotic activity was determined periodically over a 24-hour period by a turbidimetric assay procedure or by an antibiotic diffusion technique (cephalothin).

[2] = system: Mycobacterium tuberculosis; assay type: cell-based
[3] = system: P. morganii; assay: MIC by Tube Dilution Technique in Nutrient Broth (Example 9 table); assay type: cell-based; settings: Morganella morganii; Pg-8 P. morganii A15153
Description: (§1) MIC (mcg./ml.) by Tube Dilution Technique in Nutrient Broth.

[4] = system: S. marcescens; assay: as above; assay type: cell-based; settings: Serratia marcescens; Sm-1 S. marcescens A20019
Description: as §1

[5] = system: S. pyogenes; assay: as above; assay type: cell-based; settings: Streptococcus pyogenes; Sp-3 S. pyogenes A9604
Description: as §1

[6] = system: P. mirabilis; assay: as above; assay type: cell-based; settings: Proteus mirabilis; Pm-2 P. mirabilis A9900
Description: as §1

[7] = system: K. pneumoniae; assay: as above; assay type: cell-based; settings: Klebsiella pneumoniae
Description: as §1

[8] = system: E. cloacae; assay: as above; assay type: cell-based; settings: Enterobacter cloacae; El-1 E. cloacae A9656
Description: as §1

[9] = system: S. enteritidis; assay: as above; assay type: cell-based; settings: Salmonella enterica; Se-1 S. enteritidis A9531
Description: as §1

[10] = system: P. aeruginosa; assay: as above; assay type: cell-based; settings: Pseudomonas aeruginosa; P. aeruginosa A9843
Description: as §1

[11] = system: E. coli; assay: as above; assay type: cell-based; settings: Escherichia coli
Description: as §1

[12] = system: S. aureus; assay: as above; assay type: cell-based; settings: Staphylococcus aureus
Description: as §1

[13] = system: S. pneumoniae; assay: Growth inhibitory activity, antibiotic dilution technique; settings: Streptococcus pneumoniae, read-out: concentration inhibiting all strains
[14] = system: Ser. marcescens; assay: M.I.C. by Tube Dilution in Nutrient Broth (Examples 1 and 2); assay type: cell-based; settings: Serratia marcescens; Ser. marcescens A20019 (10^-4)
Description: (§2) | **Dilution of overnight broth culture

[15] = system: Sal. enteritidis; assay: as above; assay type: cell-based; settings: Salmonella enterica; Sal. enteritidis A9531 (10 ^4)
Description: as §2

[16] = system: Pr. morganii; assay: as above; assay type: cell-based; settings: Morganella morganii; Pr. morganii A15153 (10^-4)
Description: as §2

[17] = system: Pr. mirabilis; assay: as above; assay type: cell-based; settings: Proteus mirabilis; Pr. mirabilis A9900 (10^-4)
Description: as §2

[18] = system: Ent. cloacae; assay: as above; assay type: cell-based; settings: Enterobacter cloacae
Description: as §2

[19] = system: Ps. aeruginosa; assay: as above; assay type: cell-based; settings: Pseudomonas aeruginosa
Description: as §2

[20] = system: K. pneumoniae; assay: as above; assay type: cell-based; settings: Klebsiella pneumoniae
Description: as §2

[21] = system: E. coli; assay: as above; assay type: cell-based; settings: Escherichia coli, E. coli A9675 (10^-4)
Description: as §2

[22] = system: S. aureus; assay: as above; assay type: cell-based; settings: Staphylococcus aureus
Description: as §2

[23] = Solubility in water, buffer or urine; settings: soluble as Na^+ salt, as Na^+ salt
[24] = system: S. viridans; assay: Growth inhibitory activity, antibiotic dilution technique; settings: Streptococcus viridans, read-out: concentration inhibiting all strains
[25] = system: Enterobacter sp. and Citrobacter sp.; assay: Growth inhibitory activity, antibiotic dilution technique (text summary); settings: compared with cephalothin, cephaloridine, cefazolin
[26] = system: S. pyogenes; assay: Growth inhibitory activity, antibiotic dilution technique; settings: Streptococcus pyogenes, read-out: concentration inhibiting all strains
[27] = system: S. aureus; assay: as above; settings: 63 strains tested

NCc1ccccc1CC(=O)N[C@@H]1C(=O)N2C(C(=O)O)=C(CSc3nnnn3CC(=O)O)CS[C@H]12 [Example 1]
half-life [1]: > 24 h | times more active than the control compounds [2]: 4 to 32 | MIC [3]: 6.3 µg/mL (≈ 12.1 µM) | MIC [4]: > 100 µg/mL | MIC [5]: 0.16 µg/mL (≈ 0.308 µM) | MIC [6]: 0.4 µg/mL (≈ 0.77 µM) | MIC ([7]; Kp-3 K. pneumoniae A9977): 0.2 µg/mL (≈ 0.385 µM) | MIC ([7]; Kp-4 K. pneumoniae A15130): 1.6 µg/mL (≈ 3.08 µM) | MIC [8]: 50 µg/mL (≈ 96.2 µM) | MIC [9]: 0.2 µg/mL (≈ 0.385 µM) | MIC [10]: > 100 µg/mL | MIC ([11]; Ec-1 E. coli NIHJ): 0.8 µg/mL (≈ 1.54 µM) | MIC ([11]; Ec-3 E. coli Juhl A15119): 0.8 µg/mL (≈ 1.54 µM) | MIC ([11]; Ec-58 E. coli A9675): 6.3 µg/mL (≈ 12.1 µM) | MIC ([12]; Sa-2 S. aureus +50% serum): > 3.1 µg/mL | MIC ([12]; Sa-2 S. aureus Smith A9537): 3.1 µg/mL (≈ 5.97 µM) | MIC ([12]; Sa-11 S. aureus BX-1633 A9606): 3.1 µg/mL (≈ 5.97 µM) | MIC ([12]; Sa-44 S. aureus A15097): 6.3 µg/mL (≈ 12.1 µM) | MIC [13]: 0.25 µg/mL (≈ 0.481 µM) | MIC [14]: 125 µg/mL (≈ 241 µM) | MIC [15]: 0.06 µg/mL (≈ 0.115 µM) | MIC [16]: 32 µg/mL (≈ 61.6 µM) | MIC [17]: 0.13 µg/mL (≈ 0.25 µM) | MIC ([18]; Ent. cloacae A9657 (10^-4)): 0.25 µg/mL (≈ 0.481 µM) | MIC ([18]; Ent. cloacae A9659 (10^-4)): 32 µg/mL (≈ 61.6 µM) | MIC ([18]; Ent. cloacae A9656 (10^-4)): > 125 µg/mL | MIC [19]: > 125 µg/mL | MIC ([20]; K. pneumoniae A9977 (10^-4)): 0.13 µg/mL (≈ 0.25 µM) | MIC ([20]; K. pneumoniae A15130 (10^-4)): 2 µg/mL (≈ 3.85 µM) | MIC [21]: 16 µg/mL (≈ 30.8 µM) | MIC ([22]; S. aureus BX1633 A9606 (10^-2)): 2 µg/mL (≈ 3.85 µM) | MIC ([22]; S. aureus BX1633 A9606 (10^-3)): 1 µg/mL (≈ 1.92 µM) | MIC ([22]; S. aureus Meth-Res A15097 (10^-3)): 4 µg/mL (≈ 7.7 µM) | MIC ([22]; S. aureus Smith A9537 (10^-4)): 1 µg/mL (≈ 1.92 µM) | MIC ([22]; S. aureus-50% serum A9537 (10^-4)): 4 µg/mL (≈ 7.7 µM) | solubility [23]: ≥ 250 mg/mL | MIC [24]: 4 µg/mL (≈ 7.7 µM) | activity against Enterobacter sp. and Citrobacter sp. [25]: alone was active | MIC [26]: 0.5 µg/mL (≈ 0.962 µM) | number of strains of S. aureus inhibited ([27]; at 4 mcg./ml.): 62 strains | number of strains of S. aureus inhibited ([27]; at 8 mcg./ml.): 63 strains

— patent US4100346A, “Certain 7(o-amino-methyl- or methylaminomethylphenyl- or cyclohexadienyl- or thienylacetamide)-3[1-carboxymethyl-(or ethyl- or propyl-)-tetrazol-5-ylthiomethyl]-3-cephem-4-carboxylic acids” (Bristol-Myers Company, priority 1976, dated 1978)
